Assay results from ChEMBL document CHEMBL3751845, “Synthesis, molecular docking and biological evaluation of N,N-disubstituted 2-aminothiazolines as a new class of butyrylcholinesterase and carboxylesterase inhibitors” (Bioorg Med Chem, 2016).
pIC50, pKi: −log10 of the molar value.

How the values were obtained:
Liver carboxylesterase [1] = biological target: T1, Liver carboxylesterase (Sus scrofa, UniProt Q29550); experiment: Inhibition of porcine liver carboxylesterase using 4-nitrophenol acetate as substrate by spectrophotometric analysis; details: for pIC50: read-out: IC50
T1 sequence (Q29550 whole entry): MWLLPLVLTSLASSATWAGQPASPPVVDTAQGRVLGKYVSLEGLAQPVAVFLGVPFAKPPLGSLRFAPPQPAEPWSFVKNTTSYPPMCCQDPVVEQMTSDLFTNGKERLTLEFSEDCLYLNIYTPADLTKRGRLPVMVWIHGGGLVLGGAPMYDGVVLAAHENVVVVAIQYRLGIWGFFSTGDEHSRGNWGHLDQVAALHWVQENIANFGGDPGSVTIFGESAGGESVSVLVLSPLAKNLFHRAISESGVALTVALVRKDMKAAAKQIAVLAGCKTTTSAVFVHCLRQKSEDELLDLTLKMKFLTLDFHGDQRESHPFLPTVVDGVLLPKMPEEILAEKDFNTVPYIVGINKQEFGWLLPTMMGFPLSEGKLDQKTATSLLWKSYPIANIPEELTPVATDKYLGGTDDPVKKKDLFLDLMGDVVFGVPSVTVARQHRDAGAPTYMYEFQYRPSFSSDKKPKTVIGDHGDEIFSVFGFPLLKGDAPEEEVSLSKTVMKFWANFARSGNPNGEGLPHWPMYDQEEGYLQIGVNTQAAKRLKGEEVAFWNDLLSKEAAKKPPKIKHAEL

Cholinesterase [2] = biological target: T2, Cholinesterase (Equus caballus, UniProt P81908); experiment: Inhibition of equine serum BChE using butyrylthiocholine iodide as substrate preincubated for 10 mins followed by substrate addition by Ellman's method
T2 sequence (P81908 whole entry): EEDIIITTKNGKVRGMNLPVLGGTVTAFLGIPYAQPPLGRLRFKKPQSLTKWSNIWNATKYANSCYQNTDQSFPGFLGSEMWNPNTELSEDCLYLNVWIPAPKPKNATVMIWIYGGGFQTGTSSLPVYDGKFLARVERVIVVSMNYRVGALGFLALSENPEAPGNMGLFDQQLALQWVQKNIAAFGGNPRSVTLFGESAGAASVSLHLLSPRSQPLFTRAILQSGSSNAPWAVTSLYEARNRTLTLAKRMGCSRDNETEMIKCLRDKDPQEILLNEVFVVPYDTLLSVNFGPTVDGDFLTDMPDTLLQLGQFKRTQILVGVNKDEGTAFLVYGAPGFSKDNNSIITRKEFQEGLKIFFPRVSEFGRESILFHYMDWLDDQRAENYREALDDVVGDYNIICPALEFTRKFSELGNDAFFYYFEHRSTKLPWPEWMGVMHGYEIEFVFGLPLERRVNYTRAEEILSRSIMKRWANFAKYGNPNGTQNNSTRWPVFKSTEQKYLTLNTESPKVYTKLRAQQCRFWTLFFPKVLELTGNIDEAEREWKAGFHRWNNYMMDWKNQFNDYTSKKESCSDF

Acetylcholinesterase [3] = biological target: T3, Acetylcholinesterase (Homo sapiens, UniProt P22303)
T3 sequence (P22303 whole entry): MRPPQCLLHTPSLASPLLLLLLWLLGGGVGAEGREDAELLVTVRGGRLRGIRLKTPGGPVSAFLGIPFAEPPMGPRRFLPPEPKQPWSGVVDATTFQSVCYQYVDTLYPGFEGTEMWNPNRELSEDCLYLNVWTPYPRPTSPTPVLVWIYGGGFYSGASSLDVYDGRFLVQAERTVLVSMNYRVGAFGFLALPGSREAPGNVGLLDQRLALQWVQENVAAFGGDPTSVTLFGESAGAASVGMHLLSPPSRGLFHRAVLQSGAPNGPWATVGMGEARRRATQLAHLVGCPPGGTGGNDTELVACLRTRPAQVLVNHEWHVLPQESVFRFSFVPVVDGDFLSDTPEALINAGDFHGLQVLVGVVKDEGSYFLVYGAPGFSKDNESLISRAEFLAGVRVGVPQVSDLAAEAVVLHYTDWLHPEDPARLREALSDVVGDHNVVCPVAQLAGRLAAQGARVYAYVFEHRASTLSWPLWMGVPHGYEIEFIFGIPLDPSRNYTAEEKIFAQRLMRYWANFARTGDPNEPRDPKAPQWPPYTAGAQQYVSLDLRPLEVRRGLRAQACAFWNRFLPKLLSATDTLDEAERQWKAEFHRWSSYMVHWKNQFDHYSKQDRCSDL
Description: (§1) Inhibition of human erythrocyte AChE using acetylthiocholine iodide as substrate preincubated for 10 mins followed by substrate addition by Ellman's method

Liver carboxylesterase [4] = biological target: T1, Liver carboxylesterase; experiment: Noncompetitive inhibition of porcine liver carboxylesterase using 4-nitrophenol acetate as substrate assessed as steady state inhibition constant preincubated for 10 mins followed by substrate addition by Lineweaver-Burk double reciprocal plot analysis
Cholinesterase [5] = biological target: T2, Cholinesterase; experiment: Noncompetitive inhibition of equine serum BChE using butyrylthiocholine iodide as substrate assessed as steady state inhibition constant preincubated for 10 mins followed by substrate addition by Lineweaver-Burk double reciprocal plot analysis
[6] = Cytotoxicity against human fetal MSC assessed as reduction in cell viability at <30 uM after 72 hrs by MTT assay
Cholinesterase [7] = biological target: T2, Cholinesterase; experiment: Competitive inhibition of equine serum BChE using butyrylthiocholine iodide as substrate assessed as steady state inhibition constant preincubated for 10 mins followed by substrate addition by Lineweaver-Burk double reciprocal plot analysis
Acetylcholinesterase [8] = biological target: T3, Acetylcholinesterase; remark: listed apart in the source
Description: as §1

## I.ICC1CN=C(Nc2ccc3c(c2)oc2ccccc23)S1 (stereo unspecified)
Liver carboxylesterase [1]
  pIC50: < 4.00
Cholinesterase [2]
  pIC50: < 4.00
Acetylcholinesterase [3]
  IC50: Not Active

## I.ICC1CN=C(N(Cc2ccccc2)Cc2ccccc2)S1 (stereo unspecified)
Liver carboxylesterase [1]
  pIC50: 4.34
Cholinesterase [2]
  pIC50: 4.60
Acetylcholinesterase [3]
  IC50: Not Active

## Br.CC(c1ccccc1)N(Cc1ccccc1)C1=NCC(CBr)S1 (stereo unspecified)
Liver carboxylesterase [1]
  pIC50: < 4.00
Cholinesterase [2]
  pIC50: 4.85
Acetylcholinesterase [3]
  IC50: Not Active

## Br.BrCC1CN=C(N(Cc2ccccc2)Cc2ccccc2)S1 (stereo unspecified)
Liver carboxylesterase [1]
  pIC50: 4.49
Cholinesterase [2]
  pIC50: 4.59
Acetylcholinesterase [3]
  IC50: Not Active

## Br.Clc1ccccc1CN(Cc1cccnc1)C1=NCC(CBr)S1 (stereo unspecified)
Liver carboxylesterase [1]
  pIC50: < 4.00
Cholinesterase [2]
  pIC50: 4.60
Acetylcholinesterase [3]
  IC50: Not Active

## CC(C)c1ccc(CN(Cc2ccccc2)C2=NCC(CI)S2)cc1.I (stereo unspecified)
Liver carboxylesterase [4]
  pKi: 5.68
Cholinesterase [5]
  pKi: 5.12
[6]
  Activity: Non-toxic
Liver carboxylesterase [1]
  pIC50: 5.67
Cholinesterase [2]
  pIC50: 5.38
Acetylcholinesterase [3]
  IC50: Not Active
Cholinesterase [7]
  pKi: 5.87

## CC(C)(C)c1cc(CN(Cc2ccccc2)C2=NCC(CI)S2)cc(C(C)(C)C)c1O.I (stereo unspecified)
Liver carboxylesterase [1]
  IC50: Not Active
Cholinesterase [2]
  pIC50: < 4.00
Acetylcholinesterase [3]
  IC50: Not Active

## Br.CC(C)c1ccc(CN(Cc2ccccc2)C2=NCC(CBr)S2)cc1 (stereo unspecified)
Liver carboxylesterase [4]
  pKi: 5.45
[6]
  Activity: Non-toxic
Liver carboxylesterase [1]
  pIC50: 5.59
Cholinesterase [2]
  pIC50: 4.96
Acetylcholinesterase [3]
  IC50: Not Active

## COc1ccc(CN(Cc2ccccc2)C2=NCC(CI)S2)cc1OC (stereo unspecified)
Liver carboxylesterase [1]
  pIC50: < 4.00
Cholinesterase [2]
  pIC50: 4.70
Acetylcholinesterase [8]
  pIC50: < 4.00

## Clc1ccccc1CN(Cc1ccccc1)C1=NCC(CI)S1.I (stereo unspecified)
Liver carboxylesterase [1]
  pIC50: 3.93
Cholinesterase [2]
  pIC50: 4.36
Acetylcholinesterase [3]
  IC50: Not Active

## Clc1ccccc1CN(Cc1cccnc1)C1=NCC(CI)S1.I (stereo unspecified)
Liver carboxylesterase [1]
  pIC50: < 4.00
Cholinesterase [2]
  pIC50: 4.68
Acetylcholinesterase [3]
  IC50: Not Active

## I.ICC1CN=C(N(Cc2ccccc2)Cc2ccco2)S1 (stereo unspecified)
Liver carboxylesterase [1]
  pIC50: 3.88
Cholinesterase [2]
  pIC50: 4.38
Acetylcholinesterase [3]
  IC50: Not Active

## COc1ccc(CN(Cc2ccccc2)C2=NCC(CI)S2)cc1.I (stereo unspecified)
Liver carboxylesterase [4]
  pKi: 5.11
[6]
  Activity: Non-toxic
Liver carboxylesterase [1]
  pIC50: 5.33
Cholinesterase [2]
  pIC50: 4.60
Acetylcholinesterase [3]
  IC50: Not Active

## Br.COc1ccc(CN(Cc2ccccc2)C2=NCC(CBr)S2)cc1 (stereo unspecified)
Liver carboxylesterase [4]
  pKi: 5.13
[6]
  Activity: Non-toxic
Liver carboxylesterase [1]
  pIC50: 5.31
Cholinesterase [2]
  pIC50: 4.47
Acetylcholinesterase [3]
  IC50: Not Active

## Br.Clc1ccc(CN(Cc2cccnc2)C2=NCC(CBr)S2)cc1 (stereo unspecified)
Cholinesterase [5]
  pKi: 4.70
[6]
  Activity: Non-toxic
Liver carboxylesterase [1]
  pIC50: < 4.00
Cholinesterase [2]
  pIC50: 4.52
Acetylcholinesterase [3]
  IC50: Not Active
Cholinesterase [7]
  pKi: 5.02

## Fc1ccc(CN(Cc2ccccc2)C2=NCC(CI)S2)cc1.I (stereo unspecified)
Liver carboxylesterase [1]
  pIC50: 4.10
Cholinesterase [2]
  pIC50: 4.77
Acetylcholinesterase [3]
  IC50: Not Active

## Br.CC(C)(C)c1ccc(CN(Cc2ccccc2)C2=NCC(CBr)S2)cc1 (stereo unspecified)
Liver carboxylesterase [4]
  pKi: 6.36
[6]
  Activity: Non-toxic
Liver carboxylesterase [1]
  pIC50: 6.49
Cholinesterase [2]
  pIC50: 5.63
Acetylcholinesterase [3]
  IC50: Not Active
Cholinesterase [7]
  pKi: 6.21

## Br.Fc1ccc(CN(Cc2ccccc2)C2=NCC(CBr)S2)cc1 (stereo unspecified)
Liver carboxylesterase [1]
  pIC50: 4.40
Cholinesterase [2]
  pIC50: 4.42
Acetylcholinesterase [3]
  IC50: Not Active

## CC(C)(C)c1ccc(CN(Cc2ccccc2)C2=NCC(CI)S2)cc1.I (stereo unspecified)
Liver carboxylesterase [4]
  pKi: 6.40
Cholinesterase [5]
  pKi: 5.92
[6]
  Activity: Non-toxic
Liver carboxylesterase [1]
  pIC50: 6.66
Cholinesterase [2]
  pIC50: 6.11
Acetylcholinesterase [3]
  IC50: Not Active
Cholinesterase [7]
  pKi: 6.57

## CC(c1ccccc1)N(Cc1ccccc1)C1=NCC(CI)S1.I (stereo unspecified)
Liver carboxylesterase [1]
  pIC50: 4.72
Cholinesterase [2]
  pIC50: < 4.00
Acetylcholinesterase [3]
  IC50: Not Active

## Clc1ccc(CN(Cc2cccnc2)C2=NCC(CI)S2)cc1.I (stereo unspecified)
Cholinesterase [5]
  pKi: 5.44
[6]
  Activity: Non-toxic
Liver carboxylesterase [1]
  pIC50: 4.74
Cholinesterase [2]
  pIC50: 5.61
Acetylcholinesterase [8]
  pIC50: < 4.00
Cholinesterase [7]
  pKi: 6.17
